Patent publication US11149040B2, “Fused triazole agonists of the APJ receptor” (AMGEN INC., priority 2017, dated 2021)
pEC50: −log10 of the molar value.

Target: human APJ receptor (Homo sapiens (Human), UniProt P35414)
Experiment: [35S]GTPγS binding assay on membranes from CHO cells stably expressing human APJ receptor
Assay type: biochemical
Conditions: read-out: Activity hAPJ SPA EC50 IP
Outline: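 Membranes from CHO cells stably expressing FLAG-tagged human APJ; assay buffer GDP, MgCl2 and NaCl levels optimised beforehand. Incubation 90 min at RT, imager read-out. EC50 from non-linear regression on means of several independent experiments.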

human APJ receptor, sequence (P35414 whole entry): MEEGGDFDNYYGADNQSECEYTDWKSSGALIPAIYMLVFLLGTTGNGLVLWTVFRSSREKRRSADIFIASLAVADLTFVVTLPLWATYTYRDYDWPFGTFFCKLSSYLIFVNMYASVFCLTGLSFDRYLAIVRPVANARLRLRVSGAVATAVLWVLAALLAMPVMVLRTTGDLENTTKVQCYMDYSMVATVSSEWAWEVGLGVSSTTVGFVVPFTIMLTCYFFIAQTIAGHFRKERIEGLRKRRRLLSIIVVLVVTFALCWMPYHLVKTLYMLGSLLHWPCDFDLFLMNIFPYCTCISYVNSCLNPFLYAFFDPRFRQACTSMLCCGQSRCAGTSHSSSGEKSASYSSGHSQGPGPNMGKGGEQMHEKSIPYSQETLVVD

Structure (SMILES) | pEC50
COC[C@@H]1COc2cnccc2-c2nnc(NS(=O)(=O)[C@@H](C)[C@@H](OC(C)C)c3ncc(C)cn3)n21 (stereo in doubt) [Example 43.0, (1S,2S)-N-((5R)-5-(methoxymethyl)-5,6-dihydropyrido[4,3-f][1,2,4]triazolo[4,3-d][1,4]oxazepin-3-yl)-1-(5-methyl-2-pyrimidinyl)-1-(2-propanyloxy)-2-propanesulfonamide and (1S,2S)-N-((5S)-5-(methoxymethyl)-5,6-dihydropyrido[4,3-f][1,2,4]traizolo[4,3-d][1,4]oxazepin-3-yl)-1-(5-methyl-2-pyrimidinyl)-1-(2-propanyloxy)-2-propanesulfonamide] | 5.92
COC[C@@H]1COc2ccccc2-c2nnc(NS(=O)(=O)[C@@H](C)[C@H](C)c3ncc(OC)cn3)n21 (single isomer, unassigned) [Example 1.0, (2S,3R)-N-((5R)-5-(methoxymethyl)-5,6-dihydro[1,2,4]triazolo[4,3-d][1,4]benzoxazepin-3-yl)-3-(5-methoxy-2-pyrimidinyl)-2-butanesulfonamide or (2S,3R)-N-((5S)-5-(methoxymethyl)-5,6-dihydro[1,2,4]triazolo[4,3-d][1,4]benzoxazepin-3-yl)-3-(5-methoxy-2-pyrimidinyl)-2-butanesulfonamide] | 6.92
COC[C@@H]1COc2c(OC)cccc2-c2nnc(NS(=O)(=O)[C@@H](C)[C@@H](OC(C)C)c3ncc(C)cn3)n21 (single isomer, unassigned) [Example 38.0, (1S,2S)-N-((5R)-8-methoxy-5-(methoxymethyl)-5,6-dihydro[1,2,4]traizolo[4,3-d][1,4]benzoxazepin-3-yl)-1-(5-methyl-2-pyrimidinyl)-1-(2-propanyloxy)-2-propanesulfonamide or (1S,2S)-N-((5S)-8-methoxy-5-(methoxymethyl)-5,6-dihydro[1,2,4]triazolo[4,3-d][1,4]benzoxazepin-3-yl)-1-(5-methyl-2-pyrimidinyl)-1-(2-propanyloxy)-2-propanesulfonamide] | 7.19
COC[C@@H]1COc2cccnc2-c2nnc(NS(=O)(=O)[C@@H](C)[C@@H](OC(C)C)c3ncc(C)cn3)n21 (single isomer, unassigned) [Example 70.0, (1S,2S)-N-((5R)-5-(methoxymethyl)-5,6-dihydropyrido[2,3-f][1,2,4]triazolo[4,3-d][1,4]oxazepin-3-yl)-1-(5-methyl-2-pyrimidinyl)-1-(2-propanyloxy)-2-propanesulfonamide or (1S,2S)-N-((5S)-5-(methoxymethyl)-5,6-dihydropyrido[2,3-f][1,2,4]triazolo[4,3-d][1,4]oxazepin-3-yl)-1-(5-methyl-2-pyrimidinyl)-1-(2-propanyloxy)-2-propanesulfonamide] | 5.92
COC[C@@H]1COc2cccnc2-c2nnc(NS(=O)(=O)[C@@H](C)[C@@H](OC(C)C)c3ncc(C)cn3)n21 (single isomer, unassigned) [Example 69.0, (1S,2S)-N-((5R)-5-(methoxymethyl)-5,6-dihydropyrido[2,3-f][1,2,4]triazolo[4,3-d][1,4]oxazepin-3-yl)-1-(5-methyl-2-pyrimidinyl)-1-(2-propanyloxy)-2-propanesulfonamide or (1S,2S)-N-((5S)-5-(methoxymethyl)-5,6-dihydropyrido[2,3-f][1,2,4]triazolo[4,3-d][1,4]oxazepin-3-yl)-1-(5-methyl-2-pyrimidinyl)-1-(2-propanyloxy)-2-propanesulfonamide] | 6.64
COC[C@@H]1COc2ccc(F)cc2-c2nnc(NS(=O)(=O)[C@@H](C)[C@@H](OC(C)C)c3ncc(C)cn3)n21 (single isomer, unassigned) [Example 25.0, (1S,2S)-N-((5R)-10-fluoro-5-(methoxymethyl)-5,6-dihydro[1,2,4]traizolo[4,3-d][1,4]benzoxazepin-3-yl)-1-(5-methyl-2-pyrimidinyl)-1-(2-propanyloxy)-2-propanesulfonamide or (1S,2S)-N-((5S)-10-fluoro-5-(methoxymethyl)-5,6-dihydro[1,2,4]traizolo[4,3-d][1,4]benzoxazepin-3-yl)-1-(5-methyl-2-pyrimidinyl)-1-(2-propanyloxy)-2-propanesulfonamide] | 7.55
COC[C@@H]1COc2ncccc2-c2nnc(NS(=O)(=O)[C@@H](C)[C@H](OC(C)C)c3ncc(C)cn3)n21 (single isomer, unassigned) [Example 68.0, (1R,2S)-N-((5R)-5-(methoxymethyl)-5,6-dihydropyrido[3,2-f][1,2,4]triazolo[4,3-d][1,4]oxazepin-3-yl)-1-(5-methyl-2-pyrimidinyl)-1-(2-propanyloxy)-2-propanesulfonamide or (1R,2S)-N-((5S)-5-(methoxymethyl)-5,6-dihydropyrido[3,2-f][1,2,4]triazolo[4,3-d][1,4]oxazepin-3-yl)-1-(5-methyl-2-pyrimidinyl)-1-(2-propanyloxy)-2-propanesulfonamide] | 5.41
COC[C@@H]1COc2cccnc2-c2nnc(NS(=O)(=O)[C@@H](C)[C@@H](OC(C)C)c3ncc(C)cn3)n21 (mixture of isomers) [Example 61.0, (1S,2S)-N-((5R)-5-(methoxymethyl)-5,6-dihydropyrido[2,3-f][1,2,4]triazolo[4,3-d][1,4]oxazepin-3-yl)-1-(5-methyl-2-pyrimidinyl)-1-(2-propanyloxy)-2-propanesulfonamide and (1S,2S)-N-((5S)-5-(methoxymethyl)-5,6-dihydropyrido[2,3-f][1,2,4]triazolo[4,3-d][1,4]oxazepin-3-yl)-1-(5-methyl-2-pyrimidinyl)-1-(2-propanyloxy)-2-propanesulfonamide] | 6.36
COC[C@@H]1COc2ccc(OC)nc2-c2nnc(NS(=O)(=O)[C@@H](C)[C@H](C)c3ncc(OC)cn3)n21 (stereo in doubt) [Example 3.0, (2S,3R)-N-((5R)-10-methoxy-5-(methoxymethyl)-5,6-dihydropyrido[2,3-f][1,2,4]triazolo[4,3-d][1,4]oxazepin-3-yl)-3-(5-methoxy-2-pyrimidinyl)-2-butanesulfonamide and (2S,3R)-N-((5S)-10-methoxy-5-(methoxymethyl)-5,6-dihydropyrido[2,3-f][1,2,4]traizolo[4,3-d][1,4]oxazepin-3-yl)-3-(5-methoxy-2-pyrimidinyl)-2-butanesulfonamide] | 6.31
COC[C@@H]1COc2ncccc2-c2nnc(NS(=O)(=O)[C@@H](C)[C@@H](OC(C)C)c3ncc(C)cn3)n21 (single isomer, unassigned) [Example 41.0, (1S,2S)-N-((5R)-5-(methoxymethyl)-5,6-dihydropyrido[3,2-f][1,2,4]triazolo[4,3-d][1,4]oxazepin-3-yl)-1-(5-methyl-2-pyrimidinyl)-1-(2-propanyloxy)-2-propanesulfonamide or (1S,2S)-N-((5S)-5-(methoxymethyl)-5,6-dihydropyrido[3,2-f][1,2,4]triazolo[4,3-d][1,4]oxazepin-3-yl)-1-(5-methyl-2-pyrimidinyl)-1-(2-propanyloxy)-2-propanesulfonamide] | 7.36
CO[C@H](c1ncc(C)cn1)[C@H](C)S(=O)(=O)Nc1nnc2n1[C@H](CO)COc1ncccc1-2 (mixture of isomers) [Example 36.0, (1R,2S)-N-((5R)-5-(hydroxymethyl)-5,6-dihydropyrido[3,2-f][1,2,4]triazolo[4,3-d][1,4]oxazepin-3-yl)-1-methoxy-1-(5-methyl-2-pyrimidinyl)-2-propanesulfonamide and (1R,2S)-N-((5S)-5-(hydroxymethyl)-5,6-dihydropyrido[3,2-f][1,2,4]triazolo[4,3-d][1,4]oxazepin-3-yl)-1-methoxy-1-(5-methyl-2-pyrimidinyl)-2-propanesulfonamide] | 5.74
CC(C)O[C@@H](c1ncc(Cl)cn1)[C@H](C)S(=O)(=O)Nc1nnc2n1[C@H](CO)COc1ncccc1-2 (mixture of isomers) [Example 31.0, (1S,2S)-1-(5-chloro-2-pyrimidinyl)-N-((5R)-5-(hydroxymethyl)-5,6-dihydropyrido[3,2-f][1,2,4]triazolo[4,3-d][1,4]oxazepin-3-yl)-1-(2-propanyloxy)-2-propanesulfonamide and (1S,2S)-1-(5-chloro-2-pyrimidinyl)-N-((5S)-5-(hydroxymethyl)-5,6-dihydropyrido[3,2-f][1,2,4]triazolo[4,3-d][1,4]oxazepin-3-yl)-1-(2-propanyloxy)-2-propanesulfonamide] | 6.14
Cc1cnc([C@H](OC(C)C)[C@H](C)S(=O)(=O)Nc2nnc3n2C(CO)COc2ccc(C(F)(F)F)cc2-3)nc1 (single isomer, unassigned) [Example 157.0, (1S,2S)-N-((R)-5-(hydroxymethyl)-10-(trifluoromethyl)-5,6-dihydrobenzo[f][1,2,4]triazolo[4,3-d][1,4]oxazepin-3-yl)-1-isopropoxy-1-(5-methylpyrimidin-2-yl)propane-2-sulfonamide or (1S,2S)-N-((S)-5-(hydroxymethyl)-10-(trifluoromethyl)-5,6-dihydrobenzo[f][1,2,4]triazolo[4,3-d][1,4]oxazepin-3-yl)-1-isopropoxy-1-(5-methylpyrimidin-2-yl)propane-2-sulfonamide] | < 4.90
COC[C@@H]1COc2ncccc2-c2nnc(NS(=O)(=O)[C@@H](C)[C@@H](OC(C)C)c3ncc(Cl)cn3)n21 (single isomer, unassigned) [Example 45.0, (1S,2S)-1-(5-chloro-2-pyrimidinyl)-N-((5R)-5-(methoxymethyl)-5,6-dihydropyrido[3,2-f][1,2,4]triazolo[4,3-d][1,4]oxazepin-3-yl)-1-(2-propanyloxy)-2-propanesulfonamide or (1S,2S)-1-(5-chloro-2-pyrimidinyl)-N-((5S)-5-(methoxymethyl)-5,6-dihydropyrido[3,2-f][1,2,4]triazolo[4,3-d][1,4]oxazepin-3-yl)-1-(2-propanyloxy)-2-propanesulfonamide] | 6.80
